In data set [1] the test system is algae, bacteria, fungi, viruses and bryophyte plant material such as mosses, liverworts, hornworts, lichens. In words: 1% spray solution on simple celled plant material. The format is in vivo. The text has this:
The pH of the resulting solution is typically alkaline, which activates the H2O2 for bleaching. The dry powder contains about 30% by weight w/w H2O2 and finds specialty use as a wood brightener and general cleaning aid.

For data set [2] the following is noted: EPA determination; cited from earlier work.
The conditions of data set [3]: EPA determination, cited from earlier work.
Data set [4] deals with most types of plant material. In words: Spray solution over the tops of growing plant material. The format is in vivo. As to conditions: diluted in water, sprayed over the tops of growing plant material, no foam.
For data set [5] the following is noted: EPA determination; cited from earlier work. This is another data set of the same source.
The conditions of data set [6]: EPA determination; cited from earlier work. This is another data set of the same source.

The structures appear in SMILES notation.

Take `O=C([O-])[O-].O=C([O-])[O-].OO.OO.OO.[Na+].[Na+].[Na+].[Na+]` [sodium carbonate peroxyhydrate]: in data set [1], the “effect on simple celled plant material” value is “kill on contact”. Besides, in data set [2], the eye damage entry is given as “severe irreversible eye damage”. For the same compound, the “toxicity, dermal exposure” value in data set [3] (dermal exposure) is on record as “minimal to mild toxicity”. Also, the “toxicity, oral exposure” value in data set [3] (oral exposure) is given as “minimal to mild toxicity”. For the same compound, in data set [4], the “phytotoxicity effects of spray solution” value was “minimal with some plant cell necrosis”. Moreover, the dermal sensitizer result in data set [5] is reported as “not considered a dermal sensitizer”. Also, the dermal irritation entry in data set [6] is given as “Dermal irritation also occurred”.

Values taken from patent US20060258535A1, “METHOD OF USING SODIUM CARBONATE PEROXYHYDRATE AS AN HERBICIDE” (BIOSAFE SYSTEMS L.L.C.,, priority 2005, published 2006).
